{"source": "patent EP4159870A1", "about": "“SYSTEM FOR THE DETECTION OF INHIBITORS IN MILK” (Analytik in Milch Produktions- und Vertriebs-GmbH, priority 2021, dated 2023)", "key": {"[1]": {"test_system": "G. stearothermophilus C953 (DSM 1550)", "test": "BRT microbial test system with additives in the growth medium, G. stearothermophilus indicator strain", "format": "cell-based", "details": "for longer incubation time until complete discoloration of the negative control: additive in growth medium: 200 µg/l CIP, 150 µg/l MOX, versus control plates", "protocol": "(§1) The medium was prepared with one additive each. The evaluation of an increase in sensitivity and incubation time until complete discoloration of the negative control was performed by comparison with corresponding control medium, spore suspensions from the same batches and an equivalent number of spores.\n(§2) Microbial test systems were prepared according to methods L 01.01-5 (January 2012) and L 01.00-11 (December 2002) ASU. 6.85 g BRT basis medium comprising about 1.5 g/l meat extract, about 3.0 g/l yeast extract, about 4.0 g/l casein peptone, about 6.0 g/l meat peptone, about 1.0 g/l D(+)-glucose, about 10 ml/l trimethoprim solution, and about 10 to […] dissolved in 250 ml distilled water and autoclaved.\n(§3) The medium was tempered to 65 °C. 6.25 ml of sterile-filtered brilliant black solution (4 mg/ml, in dist. aqua) and medium additives and the spore suspension was added. The volume of spore suspension to be used was calculated on the basis of the desired spore number [cfu/ml] and the determined spore number of the spore suspension. The spore suspension was adjusted to a volume corresponding to 0.4 to 6 % v/v of the growth medium by dilution in Ringer's solution or by centrifugation (6,000 × g, RT, 10 min).\n(§4) 100 µl growth medium per well was aliquoted into 96-well microtiter plates, the test system plates were solidified under the sterile bench for at least 30 min, the test system plates were sealed with adhesive foil and stored at 4 °C with the bottom surface facing upwards."}, "A. pallidus MHI 3391 [2]": {"test_system": "A. pallidus MHI 3391", "test": "microbe, parasite or virus in culture"}, "A. pallidus MHI 3391 [3]": {"test_system": "A. pallidus MHI 3391", "test": "BRT microbial test system with additives in the growth medium, A. pallidus indicator strain", "format": "cell-based", "details": "for incubated longer than corresponding control plates: additive in growth medium: 100 µg/l CIP, 100 µg/l MOX; for Concentrations detected in spiked milk samples: growth medium with 100 µg/l MOX", "protocol": "as §1, §2, §3, §4"}, "[4]": {"test_system": "G. stearothermophilus C953 (DSM 1550)", "test": "microbe, parasite or virus in culture", "details": "Geobacillus stearothermophilus, DSM1550"}, "A. pallidus MHI 3390": {"test_system": "A. pallidus MHI 3390", "test": "BRT test system with Ca-DPA-activated spore suspensions", "format": "cell-based", "details": "Ca-DPA-activated spores versus control plates", "protocol": "(§5) 120 mM DPA stock solution was prepared in Tris-base and diluted in a 20-80 mM CaCl2 solution to obtain a Ca-DPA working solution before use. A spore suspension was adjusted to a specific spore count of 1.56 × 10^7 cfu/ml and a Ca-DPA concentration of 40 mM with Ca-DPA working solution and Ringer's solution. The spore suspension was incubated for 3 h in a thermal shaker at 55 °C and 350 rpm."}, "[5]": {"test_system": "A. thermoaerophilus MHI 3397", "test": "BRT test system with Ca-DPA-activated spore suspensions", "format": "cell-based", "details": "Ca-DPA-activated spores versus control plates", "protocol": "as §5"}, "A. pallidus MHI 3391 [6]": {"test_system": "A. pallidus MHI 3391", "test": "BRT test system with Ca-DPA-activated spore suspensions", "format": "cell-based", "details": "Ca-DPA-activated spores versus control plates", "protocol": "as §5"}, "[7]": {"test_system": "G. stearothermophilus C953 (DSM 1550)", "test": "BRT test system with Ca-DPA-activated spore suspensions", "format": "cell-based", "details": "Ca-DPA-activated spores versus control plates", "protocol": "as §5"}, "[8]": {"test_system": "B. thermoamylovorans MHI 3373", "test": "BRT test system with Ca-DPA-activated spore suspensions", "format": "cell-based", "details": "Ca-DPA-activated spores versus control plates without Ca-DPA activation", "protocol": "as §5"}, "A. pallidus MHI 3391 [9]": {"test_system": "A. pallidus MHI 3391", "test": "FQ-BRT test system, detection of inhibitors in spiked milk samples", "format": "cell-based", "details": "for test result in the FQ-BRT: spiked milk samples at concentrations at the level of the respective MRL; for detection at the detection level: incubation extended by two hours; for Detection at concentration: plates incubated for additional four hours relative to discoloration time of the negative control", "protocol": "A. pallidus MHI 3391 was used as the indicator bacteria, endospores were used with a spore count of 1.56 × 10^7 cfu/ml growth medium, the growth medium used was based on BRT basis medium comprising a brilliant black concentration of 100 mg/l, 100 µg/l MOX and 8000 µg/l 8-hydroxyquinoline, adjusted to a pH of 8.5. In the following, this test system will be referred to as FQ-BRT. The incubation of the FQ-BRT was carried out in a water bath at 61 ± 1 °C.\nThe detection limits determined during the photometric and visual evaluation of test plates are shown in Figure 8 based on positive and negative control (CCβ A and CCβ B) derived from quality curves generated using the logistic regression model.\nDiscoloration of the negative control on test plates of the FQ-BRT using an UHT milk negative control was observed after an incubation of 302 ± 35 min."}, "[10]": {"details": "milk samples, after heating for 20 min at 120 °C; cited from earlier work"}, "[11]": {"details": "8-hydroxyquinoline at 250, 500, 1000, 2000 and 4000 µg/l in basic growth medium"}}}
{"molecule": "Oc1cccc2cccnc12", "note": "[8-hydroxyquinoline]", "values": [{"measurement": "improvement in detection sensitivity", "setting": "[1]; [11]", "value": "no improvement in detection sensitivity"}, {"measurement": "reduction in incubation time", "setting": "[1]; addition of 8-hydroxyquinoline", "value": "not observed"}, {"measurement": "MIC", "setting": "A. pallidus MHI 3391 [2]", "value": 8, "unit": "µg/mL"}, {"measurement": "Incubation time reduced by", "setting": "A. pallidus MHI 3391 [3]; 8000 µg/l 8-hydroxyquinoline added to growth medium comprising 100 µg/l MOX", "value": "70 ± 16", "unit": "min"}, {"measurement": "improvement in detection sensitivity", "setting": "A. pallidus MHI 3391 [3]; [11]", "value": "no improvement in detection sensitivity"}, {"measurement": "Incubation time reduced by", "setting": "A. pallidus MHI 3391 [3]; addition of 2000 µg/l 8-hydroxyquinoline to basic growth medium", "value": "66 ± 0", "unit": "min"}, {"measurement": "Incubation time reduced by", "setting": "A. pallidus MHI 3391 [3]; addition of 4000 µg/l 8-hydroxyquinoline to basic growth medium", "value": "94 ± 7", "unit": "min"}, {"measurement": "decrease in incubation time", "setting": "A. pallidus MHI 3391 [3]; combination of 8000 µg/l 8-hydroxyquinoline and 100 µg/l CIP", "value": "17 ± 4", "unit": "min"}, {"measurement": "MIC", "setting": "[4]", "value": 4, "unit": "µg/mL"}]}
{"molecule": "calcium dipicolinic acid [Ca-DPA]", "values": [{"measurement": "increase in incubation time, mean difference", "setting": "A. pallidus MHI 3390", "value": "139 ± 29", "unit": "min"}, {"measurement": "effect on incubation duration", "setting": "[5]", "value": "No effect on incubation duration"}, {"measurement": "increase in incubation time, mean difference", "setting": "A. pallidus MHI 3391 [6]", "value": "164 ± 52", "unit": "min"}, {"measurement": "increase in incubation time, mean difference", "setting": "[7]", "value": "139 ± 42", "unit": "min"}, {"measurement": "shorter incubation time", "setting": "[8]", "value": "23 ± 2", "unit": "min"}]}
{"molecule": "CCN1CCN(C(=O)N[C@@H](C(=O)N[C@@H]2C(=O)N3C(C(=O)O)=C(CSc4nnnn4C)CS[C@H]23)c2ccc(O)cc2)C(=O)C1=O", "note": "[cefoperazone]", "values": [{"measurement": "test result in the FQ-BRT", "setting": "A. pallidus MHI 3391 [9]", "value": "intermediate test results"}]}
{"molecule": "O=C(O)c1cn(C2CC2)c2cc(N3CCNCC3)c(F)cc2c1=O", "note": "[CIP, ciprofloxacin]", "values": [{"measurement": "effect of addition to growth medium on detection sensitivity", "setting": "[1]; additive in growth medium: 50 µg/l CIP, 75 µg/l MOX, 100 µg/l LEV", "value": "not associated with an increased sensitivity"}, {"measurement": "longer incubation time until complete discoloration of the negative control", "setting": "[1]", "value": "32 ± 10", "unit": "min"}, {"measurement": "concentration detected in spiked milk samples", "setting": "[1]; growth medium comprising 100 or 200 µg/l CIP, 100, 125 or 150 µg/l MOX, or 200 µg/l LEV", "value": 200, "unit": "µg/kg"}, {"measurement": "incubated longer than corresponding control plates", "setting": "A. pallidus MHI 3391 [3]", "value": "17 ± 7", "unit": "min"}, {"measurement": "Concentrations detected in spiked milk samples", "setting": "A. pallidus MHI 3391 [3]", "value": 50, "unit": "µg/kg"}, {"measurement": "concentration detected", "setting": "A. pallidus MHI 3391 [3]; growth medium with addition of 100 µg/l CIP", "value": 100, "unit": "µg/kg"}, {"measurement": "detection at the detection level", "setting": "A. pallidus MHI 3391 [9]", "value": 100, "unit": "µg/kg"}, {"measurement": "Detection at concentration", "setting": "A. pallidus MHI 3391 [9]", "value": 50, "unit": "µg/kg"}]}
{"molecule": "CN1C[C@@H]2C[C@H]1CN2c1cc2c(cc1F)c(=O)c(C(=O)O)cn2C1CC1", "note": "[DAN, danofloxacin]", "values": [{"measurement": "Concentrations detected in spiked milk samples", "setting": "A. pallidus MHI 3391 [3]", "value": 120, "unit": "µg/kg"}]}
{"molecule": "Cc1onc(-c2c(Cl)cccc2Cl)c1C(=O)N[C@@H]1C(=O)N2[C@@H]1SC(C)(C)[C@@H]2C(=O)O", "note": "[dicloxacillin]", "values": [{"measurement": "test result in the FQ-BRT", "setting": "A. pallidus MHI 3391 [9]", "value": "intermediate test results"}]}
{"molecule": "gentamicin", "values": [{"measurement": "test result in the FQ-BRT", "setting": "A. pallidus MHI 3391 [9]", "value": "positive test result"}]}
{"molecule": "CCOc1ccc2ccccc2c1C(=O)N[C@@H]1C(=O)N2[C@@H]1SC(C)(C)[C@@H]2C(=O)O", "note": "[nafcillin]", "values": [{"measurement": "test result in the FQ-BRT", "setting": "A. pallidus MHI 3391 [9]", "value": "intermediate test results"}]}
{"molecule": "CC[C@H]1OC(=O)C[C@@H](O)[C@H](C)[C@@H](O[C@@H]2O[C@H](C)[C@@H](O[C@H]3C[C@@](C)(O)[C@@H](O)[C@H](C)O3)[C@H](N(C)C)[C@H]2O)[C@@H](CC=O)C[C@@H](C)C(=O)/C=C/C(C)=C/[C@@H]1CO[C@@H]1O[C@H](C)[C@@H](O)[C@@H](OC)[C@H]1OC", "note": "[tylosin]", "values": [{"measurement": "test result in the FQ-BRT", "setting": "A. pallidus MHI 3391 [9]", "value": "positive test result"}]}
{"molecule": "neomycin", "values": [{"measurement": "test result in the FQ-BRT", "setting": "A. pallidus MHI 3391 [9]", "value": "positive test result"}]}
{"molecule": "CN1CCN(c2c(F)cc3c(=O)c(C(=O)O)cn4c3c2OCN4C)CC1", "note": "[MAR, marbofloxacin]", "values": [{"measurement": "Concentrations detected in spiked milk samples", "setting": "A. pallidus MHI 3391 [3]", "value": 75, "unit": "µg/kg"}, {"measurement": "detection sensitivity", "setting": "A. pallidus MHI 3391 [9]; incubation extended by three hours", "value": 100, "unit": "µg/kg"}, {"measurement": "detection at the detection level", "setting": "A. pallidus MHI 3391 [9]", "value": 75, "unit": "µg/kg"}]}
{"molecule": "CO/N=C(\\C(=O)N[C@@H]1C(=O)N2C(C(=O)[O-])=C(C[n+]3cccc4c3CCCC4)CS[C@H]12)c1csc(N)n1", "note": "[cefquinome]", "values": [{"measurement": "test result in the FQ-BRT", "setting": "A. pallidus MHI 3391 [9]", "value": "intermediate test results"}]}
{"molecule": "COc1c(N2C[C@@H]3CCCN[C@@H]3C2)c(F)cc2c(=O)c(C(=O)O)cn(C3CC3)c12", "note": "[MOX, moxifloxacin]", "values": [{"measurement": "longer incubation time until complete discoloration of the negative control", "setting": "[1]", "value": "18 ± 0", "unit": "min"}, {"measurement": "incubated longer than corresponding control plates", "setting": "A. pallidus MHI 3391 [3]", "value": "62 ± 31", "unit": "min"}]}
{"molecule": "Cc1onc(-c2ccccc2)c1C(=O)N[C@@H]1C(=O)N2[C@@H]1SC(C)(C)[C@@H]2C(=O)O", "note": "[oxacillin]", "values": [{"measurement": "test result in the FQ-BRT", "setting": "A. pallidus MHI 3391 [9]", "value": "intermediate test results"}]}
{"molecule": "CCN1CCN(c2cc3c(cc2F)c(=O)c(C(=O)O)cn3C2CC2)CC1", "note": "[ENR, enrofloxacin]", "values": [{"measurement": "Concentrations detected in spiked milk samples", "setting": "A. pallidus MHI 3391 [3]", "value": 100, "unit": "µg/kg"}, {"measurement": "detection at the detection level", "setting": "A. pallidus MHI 3391 [9]", "value": 100, "unit": "µg/kg"}, {"measurement": "Detection at concentration", "setting": "A. pallidus MHI 3391 [9]", "value": 100, "unit": "µg/kg"}, {"measurement": "degradation", "setting": "[10]", "value": 5, "unit": "%"}]}
